Experimental data reported in the supplement of paper PMC4862054.

Key:
Settings in all cases: incubation time: 72 h
[1] = test system: CAL-148; test: normalised viability (% of control), CellTiter-Blue; higher = more viable cells (about 100 = DMSO control)
Procedure: (§1)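 DSRT, CellTiter-Blue viability, 72 h incubation. Signal is normalised to DMSO and benzethonium chloride controls. Value is the normalised response at dose 9.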

[2] = test system: CAL-51; test: as above
Procedure: as §1

[3] = test system: CAL-85-1; test: as above
Procedure: as §1

[4] = test system: DU-4475; test: as above
Procedure: as §1

[5] = test system: HDQ-P1; test: as above
Procedure: as §1

[6] = test system: MDA-MB-453; test: as above
Procedure: as §1

[7] = test system: BT-474; test: normalised response (% of control), CellTiter-Glo; higher = more viable cells (100 = DMSO, 0 = benzethonium chloride kill control)
Procedure: (§2)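 DSRT, 72 h incubation, CellTox Green / CellTiter-Glo readout. Signal is normalised to DMSO and benzethonium chloride controls. Value is the normalised response at the highest dose.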

[8] = test system: BT-549; test: as above
Procedure: as §2

[9] = test system: CAL-120; test: as above
Procedure: as §2

[10] = test system: CAL-148; test: as above
Procedure: as §2

[11] = test system: CAL-51; test: as above
Procedure: as §2

[12] = test system: CAL-85-1; test: as above
Procedure: as §2

[13] = test system: DU-4475; test: as above
Procedure: as §2

[14] = test system: HCC1937; test: as above
Procedure: as §2

[15] = test system: HDQ-P1; test: as above
Procedure: as §2

[16] = test system: Hs578T; test: as above
Procedure: as §2

[17] = test system: MCF-10A; test: as above
Procedure: as §2

[18] = test system: MDA-MB-231; test: as above
Procedure: as §2

[19] = test system: MDA-MB-453; test: as above
Procedure: as §2

[20] = test system: MFM-223; test: as above
Procedure: as §2

[21] = test system: SK-BR-3; test: as above
Procedure: as §2

| SMILES | normalised viability [1] | normalised viability [2] | normalised viability [3] | normalised viability [4] | normalised viability [5] | normalised viability [6] | normalised response [7] | normalised response [8] | normalised response [9] | normalised response [10] | normalised response [11] | normalised response [12] | normalised response [13] | normalised response [14] | normalised response [15] | normalised response [16] | normalised response [17] | normalised response [18] | normalised response [19] | normalised response [20] | normalised response [21] |
| --- | --- | --- | --- | --- | --- | --- | --- | --- | --- | --- | --- | --- | --- | --- | --- | --- | --- | --- | --- | --- | --- |
| C=CCNC1=C2C[C@@H](C)C[C@H](OC)[C@H](O)[C@@H](C)/C=C(\C)[C@H](OC(N)=O)[C@@H](OC)/C=C\C=C(/C)C(=O)NC(=CC1=O)C2=O [Tanespimycin] (10000 nM) | 9.8% | 4.68% | 21.8% | -0.27% | 24.8% | 3.61% | 22.3% | 35.5% | 42.3% | 25% | 14.9% | 21.2% | -0.09% | 34% | 20.7% | 34.2% | 14% | 15.5% | 28.6% | 38.1% | 37.1% |
| Clc1ccc(C(c2ccccc2Cl)C(Cl)Cl)cc1 (stereo unspecified) [Mitotane] (10000 nM) | 110% | 109% | 89.7% | 97.4% | 109% | 89.7% | 88.2% | 95.6% | 99.2% | 99.1% | 64.2% | 97% | 95.9% | 94.9% | 99.8% | 102% | 102% | 94.9% | 94.9% | 97% | 98.7% |
| COc1cccc2cc(-c3nc([C@H]4CC[C@H](C(=O)O)CC4)n4ncnc(N)c34)[nH]c12 [OSI-027] (10000 nM) | 10.6% | 14.5% | 25.2% | 30.1% | 20.2% | 12.5% | 51.8% | 24.8% | 30.1% | 39.2% | 38% | 30.1% | 61.2% | 47.6% | 37.5% | 33.4% | 30.5% | 45.7% | 32.2% | 28.5% | 22.9% |
| Cc1ccc(F)c(NC(=O)Nc2ccc(-c3cccc4[nH]nc(N)c34)cc2)c1 [Linifanib] (1000 nM) | 80.2% | 98.1% | 96.8% | 99.5% | 120% | 111% | 101% | 103% | 109% | 118% | 91.6% | 101% | 106% | 103% | 115% | 101% | 106% | 109% | 110% | 108% | 108% |
| C=CC[C@@H]1/C=C(\C)C[C@H](C)C[C@H](OC)[C@H]2O[C@@](O)(C(=O)C(=O)N3CCCC[C@H]3C(=O)O[C@H](/C(C)=C/[C@@H]3CC[C@@H](O)[C@H](OC)C3)[C@H](C)[C@@H](O)CC1=O)[C@H](C)C[C@@H]2OC [Tacrolimus] (10000 nM) | 115% | 95% | 100% | 107% | 136% | 98.6% | 88.5% | 90.8% | 105% | 103% | 104% | 99.6% | 103% | 94.3% | 103% | 94.5% | 103% | 91.5% | 101% | 81.2% | 89.3% |
| CC[C@]1(O)C[C@@H]2CN(CCc3c([nH]c4ccccc34)[C@@](C(=O)OC)(c3cc4c(cc3OC)N(C)[C@H]3[C@@](O)(C(=O)OC)[C@H](OC(C)=O)[C@]5(CC)C=CCN6CC[C@]43[C@@H]65)C2)C1 [Vinblastine] (1000 nM) | 22.7% | 11.4% | 44.6% | 7.08% | 39.6% | 36.3% | 46.8% | 34.3% | 59.1% | 55.3% | 23.9% | 50.3% | 37.8% | 69.3% | 70.6% | 15.3% | 71.6% | 43.4% | 64.7% | 44.6% | 17.6% |
